Here are results for one compound from patent US8071629B2, “2-pyridinylcycloalkylcarboxamide derivatives as fungicides” (Bayer Cropscience AG, priority 2005, dated 2011).

This assay deals with Sphaerotheca fuliginea. Kind of assay: In vivo test on Sphaerotheca fuliginea (powdery mildew). The settings on record: gherkin plants, preventive spray 24 h before contamination, dose 600 g/ha, grading 13 days after contamination vs control plants. The method, then: The active ingredients tested are prepared by homogenization in a mixture of DMSO (dimethylsulfoxide)/acetone/tween/water. This suspension is then diluted with water to obtain the desired active material concentration.
Gherkin plants (Vert petit de Paris variety) in starter cups, sown on a 50/50 peat soil-pozzolana substrate and grown at 20° C./23° C., are treated at cotyledons stage by spraying with the aqueous suspension described above. Plants, used as controls, are treated with an aqueous solution not containing the active material.
After 24 hours, the plants are contaminated by spraying them with an aqueous suspension of Sphaerotheca fuliginea spores (100 000 spores per ml). The spores are collected from a contaminated plants. The contaminated gerkhin plants are incubated at about 20° C./25° C. and at 60/70% relative humidity.
Grading (% of efficacy) is carried out 13 days after the contamination, in comparison with the control plants.

Structures are written as SMILES.

Take `Cn1cc(C(=O)N[C@@H]2CCCC[C@@H]2c2ncc(Cl)cc2Cl)c(C(F)F)n1` (relative stereo) [Compound A-2, N-{2-[3,5-dichloro-2-pyridinyl]cis-cyclohexyl}1-methyl-3-(difluoromethyl)-1H-pyrazole-4-carboxamide]: the “protection, % of efficacy (good, at least 70%)” value is given as “at least 70%”.
